For eleven molecules, L1 promoter activity results are on record in the supplement of paper PMC3770661.

This assay deals with HepG2 (L1.3 5'UTR promoter firefly luciferase reporter). The experiment in a line: L1 promoter activity (FLuc/RLuc) relative to DMSO vehicle control (% of control); higher = stronger L1 promoter activation. Here is the method: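 HepG2 cells in 96-well plates were cotransfected with pGL4.11-L1.3 5'UTR (firefly luciferase driven by the human L1.3 5'UTR promoter) and pGL4.74 (HSV-TK Renilla luciferase internal control), then treated with compound for 6 or 24 h. FLuc/RLuc ratio was normalised to the DMSO vehicle control (% of control); concentrations where RLuc fell below 50% of control were excluded (N.D.). Mean of at least two independent experiments in duplicate or quadruplicate.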

[1] abbreviates: concentration (uM unless unit written): 100, treatment time: 6 h.
Setting [2] is: concentration (uM unless unit written): 100, treatment time: 24 h.
The mark [3] stands for this setting: concentration (uM unless unit written): 200, treatment time: 6 h.
The mark [4] stands for this setting: concentration (uM unless unit written): 500, treatment time: 6 h.
Setting [5] is: concentration (uM unless unit written): 50, treatment time: 6 h.
[6] abbreviates: concentration (uM unless unit written): 50, treatment time: 24 h.
Setting [7] is: concentration (uM unless unit written): 200, treatment time: 24 h.
[8] abbreviates: concentration (uM unless unit written): 10, treatment time: 6 h.
Setting [9] is: concentration (uM unless unit written): 10, treatment time: 24 h.
Where [10] appears, read: concentration (uM unless unit written): 25, treatment time: 6 h.
[11] abbreviates: concentration (uM unless unit written): 25, treatment time: 24 h.
Where [12] appears, read: concentration (uM unless unit written): 1000, treatment time: 6 h.
[13] abbreviates: concentration (uM unless unit written): 5, treatment time: 6 h.
The mark [14] stands for this setting: concentration (uM unless unit written): 5, treatment time: 24 h.

Where a name gives a salt, the structure may show the parent alone. ± gives the uncertainty stated by the source.

As to `NC1=NCC2c3ccccc3Cc3ccccc3N12` (stereo not given) [Epinastine hydrochloride], the L1 promoter activity was determined as 93.6 ± 15 under setting [1], 85.9 ± 26 under setting [2], 77.8 ± 12 under setting [3] and 27.1 ± 3.8 under setting [4].

`O=C(O)c1nn(Cc2ccc(Cl)cc2Cl)c2ccccc12` [Lonidamine] had an L1 promoter activity under setting [5] of 105 ± 12; an L1 promoter activity under setting [6] of 93 ± 8; an L1 promoter activity under setting [1] of 87.9 ± 6.3; an L1 promoter activity under setting [2] of 105 ± 9.1; an L1 promoter activity under setting [3] of 99.9 ± 25; an L1 promoter activity under setting [7] of 91.6 ± 9.5.

Regarding `CN(Cc1cnc2nc(N)nc(N)c2n1)c1ccc(C(=O)N[C@@H](CCC(=O)O)C(=O)O)cc1` [Methotrexate], the L1 promoter activity runs as follows: under setting [8], 86.8 ± 9.6; under setting [9], 112 ± 36; under setting [1], 93.4 ± 13; under setting [2], 108 ± 48; under setting [3], 93.6 ± 12; under setting [7], 142 ± 41.

Regarding `C=C[C@@]1(C)CC(=O)[C@]2(O)[C@@]3(C)[C@@H](O)CCC(C)(C)[C@@H]3[C@H](O)[C@H](OC(C)=O)[C@@]2(C)O1` [Forskolin], the L1 promoter activity is, setting by setting: under setting [10], 88.6 ± 4.5; under setting [11], 59.9 ± 9; under setting [5], 85.9 ± 4; under setting [6], 59 ± 6.1; under setting [1], 89.2 ± 7.9; under setting [2], 52 ± 4.8.

With `CCOC(=O)C(C)(C)Oc1ccc(Cl)cc1` [Clofibrate], the L1 promoter activity is, setting by setting: under setting [8], 113 ± 11; under setting [9], 112 ± 7.9; under setting [1], 102 ± 11; under setting [2], 100 ± 9.5; under setting [12], 106 ± 17; (concentration (uM unless unit written): 1000, treatment time: 24 h) 132 ± 23.

Take `CC(C)(Oc1ccc(CCNC(=O)c2ccc(Cl)cc2)cc1)C(=O)O` [Bezafibrate]: the L1 promoter activity is, setting by setting: under setting [8], 115 ± 13; under setting [9], 105 ± 4.7; under setting [1], 140 ± 11; under setting [2], 133 ± 13; under setting [12], 174 ± 14.

For `O=c1[nH]cc(F)c(=O)[nH]1` [Fluorouracil], the L1 promoter activity runs as follows: under setting [13], 110 ± 30; under setting [14], 107 ± 18; under setting [8], 109 ± 22; under setting [9], 83.2 ± 4.1; (concentration (uM unless unit written): 20, treatment time: 6 h) 94.5 ± 11; (concentration (uM unless unit written): 20, treatment time: 24 h) 73.4 ± 11.

For `Nc1nc(=S)c2[nH]cnc2[nH]1` [6-Thioguanine], the L1 promoter activity is 126 ± 16 (concentration (uM unless unit written): 2.5, treatment time: 6 h); 98.6 ± 12 (concentration (uM unless unit written): 2.5, treatment time: 24 h); 108 ± 17 under setting [13]; 102 ± 14 under setting [14]; 104 ± 4.2 under setting [8]; 97.3 ± 11 under setting [9].

As for `Nc1ccn([C@@H]2O[C@H](CO)[C@@H](O)[C@@H]2O)c(=O)n1` [Cytosine arabinoside], the L1 promoter activity was 101 ± 8 (concentration (uM unless unit written): 125, treatment time: 6 h); 106 ± 3.7 (concentration (uM unless unit written): 125, treatment time: 24 h); 95.2 ± 5.5 (concentration (uM unless unit written): 250, treatment time: 6 h); 105 ± 4.4 (concentration (uM unless unit written): 250, treatment time: 24 h); 102 ± 8.1 under setting [4]; 103 ± 6.2 (concentration (uM unless unit written): 500, treatment time: 24 h).

With `CC(=O)[C@H]1CC[C@H]2[C@@H]3CCC4=CC(=O)CC[C@]4(C)[C@H]3CC[C@]12C` [Progesterone], the L1 promoter activity is 101 ± 7.1 under setting [10]; 81.7 ± 12 under setting [11]; 90.4 ± 15 under setting [5]; 67.8 ± 7.1 under setting [6]; 73.7 ± 6.7 under setting [1].

For `COc1cc2c(c(OC)c1OC)-c1ccc(OC)c(=O)cc1[C@@H](NC(C)=O)CC2` [Colchicine], the L1 promoter activity turned out to be 100 ± 17 (concentration (uM unless unit written): 0.01, treatment time: 6 h); 100 ± 18 (concentration (uM unless unit written): 0.01, treatment time: 24 h); 99.8 ± 4.3 (concentration (uM unless unit written): 0.05, treatment time: 6 h); 108 ± 32 (concentration (uM unless unit written): 0.1, treatment time: 6 h).
